{"source": "patent US12220440B2", "about": "“Drug composition, method for treating infection, disinfecting composition, and drug adjuvant” (priority 2022, dated 2025)", "tested_on": "E. coli (colistin-resistant)", "assay": "MIC, colistin-resistant E. coli clinical isolates, with and without otilonium bromide", "assay_type": "cell-based", "settings": "Escherichia coli", "note": "Where two headings read alike, the source gives them in different places. Peptide text beside a SMILES is read from it.", "data": [{"smiles": "CCC(C)CCCC(=O)N[C@@H](CCN)C(=O)N[C@H](C(=O)N[C@@H](CCN)C(=O)N[C@H]1CCNC(=O)[C@H]([C@@H](C)O)NC(=O)[C@H](CCN)NC(=O)[C@H](CCN)NC(=O)[C@H](CC(C)C)NC(=O)[C@@H](CC(C)C)NC(=O)[C@H](CCN)NC1=O)[C@@H](C)O", "note": "(stereo partly drawn) [Colistin] (HELM PEPTIDE1{[CCC(C)CCCC(=O)[*:2]].[Dab].T.[Dab].[Dab].[Dab].[dL].L.[Dab].[Dab].T}$PEPTIDE1,PEPTIDE1,5:R3-11:R2$$$V2.0)", "values": [{"measurement": "MIC", "setting": "E. coli 5, colistin-resistant, colistin alone, read-out: Colistin MIC, Colistin", "value": 8, "unit": "µg/mL"}, {"measurement": "MIC", "setting": "E. coli 5, colistin-resistant, in the presence of 10 ug/ml Ob, read-out: Colistin MIC, Colistin + 10 ug/ml Ob", "value": 4, "unit": "µg/mL"}, {"measurement": "MIC", "setting": "E. coli 5, colistin-resistant, in the presence of 20 ug/ml Ob, read-out: Colistin MIC, Colistin + 20 ug/ml Ob", "value": "≤ 0.25", "unit": "µg/mL"}, {"measurement": "MIC", "setting": "E. coli 12.12.0487, colistin-resistant, colistin alone, read-out: Colistin MIC, Colistin", "value": 8, "unit": "µg/mL"}, {"measurement": "MIC", "setting": "E. coli 12.12.0487, colistin-resistant, in the presence of 10 ug/ml Ob, read-out: Colistin MIC, Colistin + 10 ug/ml Ob", "value": 2, "unit": "µg/mL"}, {"measurement": "MIC", "setting": "E. coli 12.12.0487, colistin-resistant, in the presence of 20 ug/ml Ob, read-out: Colistin MIC, Colistin + 20 ug/ml Ob", "value": 0.5, "unit": "µg/mL"}, {"measurement": "MIC", "setting": "E. coli 101, colistin-resistant, colistin alone, read-out: Colistin MIC, Colistin", "value": 8, "unit": "µg/mL"}, {"measurement": "MIC", "setting": "E. coli 101, colistin-resistant, in the presence of 10 ug/ml Ob, read-out: Colistin MIC, Colistin + 10 ug/ml Ob", "value": 4, "unit": "µg/mL"}, {"measurement": "MIC", "setting": "E. coli 101, colistin-resistant, in the presence of 20 ug/ml Ob, read-out: Colistin MIC, Colistin + 20 ug/ml Ob", "value": 1, "unit": "µg/mL"}, {"measurement": "MIC", "setting": "E. coli 119, colistin-resistant, colistin alone, read-out: Colistin MIC, Colistin", "value": 16, "unit": "µg/mL"}, {"measurement": "MIC", "setting": "E. coli 119, colistin-resistant, in the presence of 10 ug/ml Ob, read-out: Colistin MIC, Colistin + 10 ug/ml Ob", "value": 4, "unit": "µg/mL"}, {"measurement": "MIC", "setting": "E. coli 119, colistin-resistant, in the presence of 20 ug/ml Ob, read-out: Colistin MIC, Colistin + 20 ug/ml Ob", "value": 2, "unit": "µg/mL"}, {"measurement": "MIC", "setting": "E. coli 812, colistin-resistant, colistin alone, read-out: Colistin MIC, Colistin", "value": 16, "unit": "µg/mL"}, {"measurement": "MIC", "setting": "E. coli 812, colistin-resistant, in the presence of 10 ug/ml Ob, read-out: Colistin MIC, Colistin + 10 ug/ml Ob", "value": 4, "unit": "µg/mL"}, {"measurement": "MIC", "setting": "E. coli 812, colistin-resistant, in the presence of 20 ug/ml Ob, read-out: Colistin MIC, Colistin + 20 ug/ml Ob", "value": 1, "unit": "µg/mL"}, {"measurement": "MIC", "setting": "E. coli 2016.2.5 1149-1, colistin-resistant, colistin alone, read-out: Colistin MIC, Colistin", "value": 8, "unit": "µg/mL"}, {"measurement": "MIC", "setting": "E. coli 2016.2.5 1149-1, colistin-resistant, in the presence of 10 ug/ml Ob, read-out: Colistin MIC, Colistin + 10 ug/ml Ob", "value": 4, "unit": "µg/mL"}, {"measurement": "MIC", "setting": "E. coli 2016.2.5 1149-1, colistin-resistant, in the presence of 20 ug/ml Ob, read-out: Colistin MIC, Colistin + 20 ug/ml Ob", "value": 1, "unit": "µg/mL"}, {"measurement": "MIC", "setting": "E. coli 34650, colistin-resistant, colistin alone, read-out: Colistin MIC, Colistin", "value": 8, "unit": "µg/mL"}, {"measurement": "MIC", "setting": "E. coli 34650, colistin-resistant, in the presence of 10 ug/ml Ob, read-out: Colistin MIC, Colistin + 10 ug/ml Ob", "value": 2, "unit": "µg/mL"}, {"measurement": "MIC", "setting": "E. coli 34650, colistin-resistant, in the presence of 20 ug/ml Ob, read-out: Colistin MIC, Colistin + 20 ug/ml Ob", "value": 0.5, "unit": "µg/mL"}, {"measurement": "MIC", "setting": "E. coli CX48, colistin-resistant, colistin alone, read-out: Colistin MIC, Colistin", "value": 8, "unit": "µg/mL"}, {"measurement": "MIC", "setting": "E. coli CX48, colistin-resistant, in the presence of 10 ug/ml Ob, read-out: Colistin MIC, Colistin + 10 ug/ml Ob", "value": 4, "unit": "µg/mL"}, {"measurement": "MIC", "setting": "E. coli CX48, colistin-resistant, in the presence of 20 ug/ml Ob, read-out: Colistin MIC, Colistin + 20 ug/ml Ob", "value": 1, "unit": "µg/mL"}, {"measurement": "MIC", "setting": "E. coli CX53, colistin-resistant, colistin alone, read-out: Colistin MIC, Colistin", "value": 8, "unit": "µg/mL"}, {"measurement": "MIC", "setting": "E. coli CX53, colistin-resistant, in the presence of 10 ug/ml Ob, read-out: Colistin MIC, Colistin + 10 ug/ml Ob", "value": 4, "unit": "µg/mL"}, {"measurement": "MIC", "setting": "E. coli CX53, colistin-resistant, in the presence of 20 ug/ml Ob, read-out: Colistin MIC, Colistin + 20 ug/ml Ob", "value": 2, "unit": "µg/mL"}, {"measurement": "MIC", "setting": "E. coli CX116, colistin-resistant, colistin alone, read-out: Colistin MIC, Colistin", "value": 2, "unit": "µg/mL"}, {"measurement": "MIC", "setting": "E. coli CX116, colistin-resistant, in the presence of 10 ug/ml Ob, read-out: Colistin MIC, Colistin + 10 ug/ml Ob", "value": "≤ 0.25", "unit": "µg/mL"}, {"measurement": "MIC", "setting": "E. coli CX116, colistin-resistant, in the presence of 20 ug/ml Ob, read-out: Colistin MIC, Colistin + 20 ug/ml Ob", "value": "≤ 0.25", "unit": "µg/mL"}, {"measurement": "MIC", "setting": "E. coli WZ2431, colistin-resistant, colistin alone, read-out: Colistin MIC, Colistin", "value": 8, "unit": "µg/mL"}, {"measurement": "MIC", "setting": "E. coli WZ2431, colistin-resistant, in the presence of 10 ug/ml Ob, read-out: Colistin MIC, Colistin + 10 ug/ml Ob", "value": 2, "unit": "µg/mL"}, {"measurement": "MIC", "setting": "E. coli WZ2431, colistin-resistant, in the presence of 20 ug/ml Ob, read-out: Colistin MIC, Colistin + 20 ug/ml Ob", "value": 0.5, "unit": "µg/mL"}, {"measurement": "MIC", "setting": "E. coli WZ2909, colistin-resistant, colistin alone, read-out: Colistin MIC, Colistin", "value": 16, "unit": "µg/mL"}, {"measurement": "MIC", "setting": "E. coli WZ2909, colistin-resistant, in the presence of 10 ug/ml Ob, read-out: Colistin MIC, Colistin + 10 ug/ml Ob", "value": 8, "unit": "µg/mL"}, {"measurement": "MIC", "setting": "E. coli WZ2909, colistin-resistant, in the presence of 20 ug/ml Ob, read-out: Colistin MIC, Colistin + 20 ug/ml Ob", "value": 1, "unit": "µg/mL"}, {"measurement": "MIC", "setting": "E. coli WZ3903, colistin-resistant, colistin alone, read-out: Colistin MIC, Colistin", "value": 4, "unit": "µg/mL"}, {"measurement": "MIC", "setting": "E. coli WZ3903, colistin-resistant, in the presence of 10 ug/ml Ob, read-out: Colistin MIC, Colistin + 10 ug/ml Ob", "value": "≤ 0.25", "unit": "µg/mL"}, {"measurement": "MIC", "setting": "E. coli WZ3903, colistin-resistant, in the presence of 20 ug/ml Ob, read-out: Colistin MIC, Colistin + 20 ug/ml Ob", "value": "≤ 0.25", "unit": "µg/mL"}, {"measurement": "MIC", "setting": "E. coli WZ3906, colistin-resistant, colistin alone, read-out: Colistin MIC, Colistin", "value": 8, "unit": "µg/mL"}]}]}
